Measured values as given in the supplement of paper PMC10307832.

Tests used:
Test in all cases: relative viability (nuclei count vs DMSO), 5 days (fraction); higher = more cells survive
[1] = compound: CCOC1=CC=CC=C1N=NC2=C(NN(C2=O)C3=NC(=CS3)C4=CC=CC=C4)C [BAM7] + Nc1ncn([C@H]2C[C@H](O)[C@@H](CO)O2)c(=O)n1 [Decitabine] (partner 2 µM)
In short: (§1)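 For relative viability, nuclei counts in treated wells were divided by those in vehicle wells. Lung cancer cell lines had been pin-tool dosed in 1536-well plates the day after seeding and cultured for 5 days, then fixed and stained in one step (final 0.05% Triton X-100, 1% formaldehyde, 1 ug/ml Hoechst) and imaged at 4×. Doses were one drug alone or a fixed anchor-drug dose plus five library-drug doses (not always all listed) in √10 steps, and values are duplicate-plate medians.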

[2] = compound: CCOC1=CC=CC=C1N=NC2=C(NN(C2=O)C3=NC(=CS3)C4=CC=CC=C4)C [BAM7] + CC(C)C[C@H](NC(=O)[C@H](Cc1ccccc1)NC(=O)c1cnccn1)B(O)O [Bortezomib] (partner 0.002 µM)
In short: as §1

[3] = compound: CCn1c(-c2nonc2N)nc2c(C#CC(C)(C)O)ncc(OC[C@H]3CCCNC3)c21 + CCNC(=O)c1noc(-c2cc(C(C)C)c(O)cc2O)c1-c1ccc(CN2CCOCC2)cc1 [Luminespib] (partner 0.01 µM)
In short: as §1

[4] = compound: CCn1c(-c2nonc2N)nc2c(C#CC(C)(C)O)ncc(OC[C@H]3CCCNC3)c21 + Cc1nc(Nc2ncc(C(=O)Nc3c(C)cccc3Cl)s2)cc(N2CCN(CCO)CC2)n1 [Dasatinib] (partner 0.075 µM)
In short: as §1

Cell Line: HCC-44
- relative viability ([1]; first compound 0.5 µM): 0.96
- relative viability ([1]; first compound 5 µM): 0.938
- relative viability ([1]; first compound 15.81 µM): 0.926
- relative viability ([1]; first compound 50 µM): 0.949
- relative viability ([2]; first compound 0.5 µM): 1.01
- relative viability ([2]; first compound 5 µM): 0.921
- relative viability ([2]; first compound 15.81 µM): 0.879
- relative viability ([2]; first compound 50 µM): 0.838
- relative viability ([3]; first compound 0.1 µM): 0.994
- relative viability ([3]; first compound 0.3162 µM): 0.906
- relative viability ([3]; first compound 1 µM): 1.21

Cell Line: HCC-78
- relative viability ([1]; first compound 0.5 µM): 0.965
- relative viability ([1]; first compound 5 µM): 0.696
- relative viability ([1]; first compound 15.81 µM): 0.731
- relative viability ([1]; first compound 50 µM): 0.752
- relative viability ([2]; first compound 0.5 µM): 0.586
- relative viability ([2]; first compound 5 µM): 0.63
- relative viability ([2]; first compound 15.81 µM): 0.419
- relative viability ([2]; first compound 50 µM): 0.608
- relative viability ([4]; first compound 0.01 µM): 0.344
- relative viability ([4]; first compound 0.03162 µM): 0.361
- relative viability ([4]; first compound 0.1 µM): 0.423
- relative viability ([4]; first compound 0.3162 µM): 0.291
- relative viability ([4]; first compound 1 µM): 0.389

Cell Line: HCC-366
- relative viability ([1]; first compound 0.5 µM): 0.325
- relative viability ([1]; first compound 5 µM): 0.327
- relative viability ([1]; first compound 15.81 µM): 0.319
- relative viability ([1]; first compound 50 µM): 0.313
- relative viability ([2]; first compound 0.5 µM): 1.09
- relative viability ([2]; first compound 5 µM): 1.11
- relative viability ([2]; first compound 15.81 µM): 1.08
- relative viability ([2]; first compound 50 µM): 1.08
- relative viability ([4]; first compound 0.01 µM): 0.597
- relative viability ([4]; first compound 0.03162 µM): 0.6
- relative viability ([4]; first compound 0.1 µM): 0.602
- relative viability ([4]; first compound 0.3162 µM): 0.593
- relative viability ([4]; first compound 1 µM): 0.606

Cell Line: HCC-827
- relative viability ([1]; first compound 0.5 µM): 0.314
- relative viability ([1]; first compound 5 µM): 0.314
- relative viability ([1]; first compound 15.81 µM): 0.376
- relative viability ([1]; first compound 50 µM): 0.302
- relative viability ([2]; first compound 0.5 µM): 1.1
- relative viability ([2]; first compound 5 µM): 1.17
- relative viability ([2]; first compound 15.81 µM): 1.05
- relative viability ([2]; first compound 50 µM): 0.917
- relative viability ([3]; first compound 0.01 µM): 0.533
- relative viability ([3]; first compound 0.03162 µM): 0.895
- relative viability ([3]; first compound 0.1 µM): 0.729
- relative viability ([3]; first compound 0.3162 µM): 0.476
- relative viability ([3]; first compound 1 µM): 0.633
- relative viability ([4]; first compound 0.01 µM): 0.242
- relative viability ([4]; first compound 0.03162 µM): 0.34
- relative viability ([4]; first compound 0.1 µM): 0.296
- relative viability ([4]; first compound 0.3162 µM): 0.354
- relative viability ([4]; first compound 1 µM): 0.335

Cell Line: HOP-62
- relative viability ([1]; first compound 0.5 µM): 0.191
- relative viability ([1]; first compound 5 µM): 0.256
- relative viability ([1]; first compound 15.81 µM): 0.226
- relative viability ([1]; first compound 50 µM): 0.255
- relative viability ([2]; first compound 0.5 µM): 0.854
- relative viability ([2]; first compound 5 µM): 0.98
- relative viability ([2]; first compound 15.81 µM): 1.05
- relative viability ([2]; first compound 50 µM): 0.847
- relative viability ([3]; first compound 0.01 µM): 0.903
- relative viability ([3]; first compound 0.03162 µM): 0.878
- relative viability ([3]; first compound 0.1 µM): 0.913
- relative viability ([3]; first compound 0.3162 µM): 0.876
- relative viability ([3]; first compound 1 µM): 0.967
- relative viability ([4]; first compound 0.01 µM): 0.64
- relative viability ([4]; first compound 0.03162 µM): 0.587
- relative viability ([4]; first compound 0.1 µM): 0.66
- relative viability ([4]; first compound 0.3162 µM): 0.659
- relative viability ([4]; first compound 1 µM): 0.607

Cell Line: IA-LM
- relative viability ([2]; first compound 0.5 µM): 0.789
- relative viability ([2]; first compound 5 µM): 0.98
- relative viability ([2]; first compound 15.81 µM): 0.756
- relative viability ([2]; first compound 50 µM): 0.777

Cell Line: LK-2
- relative viability ([1]; first compound 0.5 µM): 0.352
- relative viability ([1]; first compound 5 µM): 0.335
- relative viability ([1]; first compound 15.81 µM): 0.347
- relative viability ([1]; first compound 50 µM): 0.326
- relative viability ([3]; first compound 0.01 µM): 0.168
- relative viability ([3]; first compound 0.03162 µM): 0.177
- relative viability ([3]; first compound 1 µM): 0.14
- relative viability ([4]; first compound 0.01 µM): 0.252
- relative viability ([4]; first compound 0.03162 µM): 0.275
- relative viability ([4]; first compound 1 µM): 0.406

Cell Line: NCI-H358
- relative viability ([1]; first compound 5 µM): 0.199
- relative viability ([1]; first compound 15.81 µM): 0.232
- relative viability ([1]; first compound 50 µM): 0.224
- relative viability ([3]; first compound 0.01 µM): 0.375
- relative viability ([3]; first compound 0.03162 µM): 0.403
- relative viability ([3]; first compound 0.1 µM): 0.279
- relative viability ([3]; first compound 0.3162 µM): 0.257
- relative viability ([3]; first compound 1 µM): 0.419
- relative viability ([4]; first compound 0.01 µM): 0.196
- relative viability ([4]; first compound 0.03162 µM): 0.19
- relative viability ([4]; first compound 0.1 µM): 0.169
- relative viability ([4]; first compound 0.3162 µM): 0.135
- relative viability ([4]; first compound 1 µM): 0.183

Cell Line: NCI-H522
- relative viability ([1]; first compound 0.5 µM): 0.729
- relative viability ([1]; first compound 5 µM): 0.638
- relative viability ([1]; first compound 15.81 µM): 0.687
- relative viability ([1]; first compound 50 µM): 0.671
- relative viability ([3]; first compound 0.01 µM): 0.929
- relative viability ([3]; first compound 0.03162 µM): 1.19
- relative viability ([3]; first compound 0.1 µM): 1.14
- relative viability ([3]; first compound 0.3162 µM): 0.604
- relative viability ([3]; first compound 1 µM): 1.2
- relative viability ([4]; first compound 0.01 µM): 0.796
- relative viability ([4]; first compound 0.03162 µM): 0.949
- relative viability ([4]; first compound 0.1 µM): 0.845
- relative viability ([4]; first compound 0.3162 µM): 0.718
- relative viability ([4]; first compound 1 µM): 0.998

Cell Line: NCI-H1299
- relative viability ([2]; first compound 0.5 µM): 1.02
- relative viability ([2]; first compound 5 µM): 1.04
- relative viability ([2]; first compound 15.81 µM): 1.03
- relative viability ([2]; first compound 50 µM): 0.963

Cell Line: NCI-H1395
- relative viability ([1]; first compound 0.5 µM): 0.729
- relative viability ([1]; first compound 5 µM): 0.875
- relative viability ([1]; first compound 15.81 µM): 0.707
- relative viability ([1]; first compound 50 µM): 0.722
- relative viability ([3]; first compound 0.01 µM): 0.78
- relative viability ([3]; first compound 0.03162 µM): 0.705
- relative viability ([3]; first compound 0.1 µM): 0.546
- relative viability ([3]; first compound 0.3162 µM): 0.596
- relative viability ([3]; first compound 1 µM): 0.695
- relative viability ([4]; first compound 0.01 µM): 0.448
- relative viability ([4]; first compound 0.03162 µM): 0.387
- relative viability ([4]; first compound 0.1 µM): 0.395
- relative viability ([4]; first compound 0.3162 µM): 0.393
- relative viability ([4]; first compound 1 µM): 0.386
